Converted amounts (≈) assume the structure as drawn. “Also recorded” adds a separate entry of the source. Where a SMILES comes first, the peptide text is derived from it. Bridges are numbered along the chain shown (N, C = ends). [ ]: non-standard residue; d: D form. The star is where a group is joined. Decanoyl(3R-OH) = CCCCCCC[C@@H](O)CC(=O)*; dDab = NCC[C@@H](N)C(=O)O; Dab = NCC[C@H](N)C(=O)O
What was measured:
[1] = tested on: C. neoformans var. neoformans; assay: microbe, parasite or virus in culture; settings: no visible growth
Description: (§1) The MICs of the yeast strains for PMB, PME, and octapeptin C4 and its derivatives were determined in accordance with CLSI M27-A2 guidelines using YNB (Becton Dickinson, USA) medium supplemented with 10 mM ammonium sulfate and 2% glucose, a final inoculum concentration of 1.5 × 10^3 to 2.0 × 10^3 cells/ml, and incubation at 35°C for 72 h ([39]). […] The MICs for PMB, PME, and octapeptin C4 for A. fumigatus were determined in accordance with the CLSI M38-A2 guidelines ([40]) using synthetic RPMI 1640 medium (with glutamine, without bicarbonate and with phenol red; Life Technologies, USA). The final inoculum concentration was 0.4 × 10^4 to 5 × 10^4 cells/ml, with incubation at 35°C for 48 h. […] All assays were completed in triplicate. Fluconazole was used as a positive control where the MIC was determined at both 50% growth (in accordance with CLSI M27-A2 guidelines) and when there was a “no visible growth” reading.

[2] = tested on: C. neoformans var. gattii; assay: organism not typed; settings: no visible growth
Description: as §1

[3] = tested on: C. neoformans var. grubii; assay: organism not typed; settings: no visible growth
Description: The MICs of the yeast strains for PMB, PME, and octapeptin C4 and its derivatives were determined in accordance with CLSI M27-A2 guidelines using YNB (Becton Dickinson, USA) medium supplemented with 10 mM ammonium sulfate and 2% glucose, a final inoculum concentration of 1.5 × 10^3 to 2.0 × 10^3 cells/ml, and incubation at 35°C for 72 h ([39]). […] The MICs for PMB, PME, and octapeptin C4 for A. fumigatus were determined in accordance with the CLSI M38-A2 guidelines ([40]) using synthetic RPMI 1640 medium (with glutamine, without bicarbonate and with phenol red; Life Technologies, USA). The final inoculum concentration was 0.4 × 10^4 to 5 × 10^4 cells/ml, with incubation at 35°C for 48 h. […] All assays were completed in triplicate. Fluconazole was used as a positive control where the MIC was determined at both 50% growth (in accordance with CLSI M27-A2 guidelines) and when there was a “no visible growth” reading. […]

[4] = tested on: capsule-induced or -suppressed C. neoformans H99 cells; assay: In vitro time course assay of capsule influence; format: cell-based, Cryptococcus neoformans; settings: H99; PMB at 12.5 μM, octapeptin C4 at 1.56 μM; 0-8 h; two replicates
Description: (A) C. neoformans grown on capsule inducing RPMI 1640 agar medium (without L-glutamine and sodium bicarbonate) with incubation at 37°C in 5% CO2 for 3 days. Scale bar, 20 μm. (B) C. neoformans grown on capsule-suppressing media, YPD containing 1 M NaCl at 30°C in ambient air for 3 days. […] The data represent the means of two replicates, and the error bars represent the standard errors of the mean (SEM).
Capsule induction of strain H99 was achieved as described by Zhai et al. ([37]) with growth on RPMI 1640 (without L-glutamine and sodium bicarbonate) (Sigma, Australia) agar medium and incubation at 37°C in 5% CO2 and capsule suppression by growth on YPD containing 1 M NaCl at 30°C in ambient air. After 3 days, the cells from each culture were collected, washed twice with phosphate-buffered saline (PBS), and resuspended in PBS to avoid changes in the capsule at a density of 1,500 to 2,000 cells/ml. Cell suspensions were treated with test compounds at the determined MIC value. The compounds tested were PMB sulfate, octapeptin C4, and the octapeptin C4 alanine scan derivatives P1L, P1D, P4, P3, P4L, P4D, P5, P6, P7, and P8. At 0, 1, 2, 4, 6, and 8 h after inoculation, samples from each treatment were spread onto a YPD plate, followed by incubation at 30°C for 3 days, at which time the colonies were counted. The assay was repeated in duplicate, and paired sample t tests were performed using GraphPad Prism v7.0 (GraphPad Software, USA).

## CCCCCCC[C@@H](O)CC(=O)N[C@H](CCN)C(=O)N[C@H]1CCNC(=O)[C@H](CC(C)C)NC(=O)[C@H](CCN)NC(=O)[C@H](CCN)NC(=O)[C@H](CC(C)C)NC(=O)[C@@H](Cc2ccccc2)NC(=O)[C@H](CCN)NC1=O [Octapeptin C4, octapeptin C4] ({Decanoyl(3R-OH)}-[dDab][Dab][Dab][dF]L[Dab][Dab]L; lactam 2-C (inferred); N-terminus assumed)
[1]; strain WM 01.127 (USA)
  MIC: 1.56 µg/mL (≈ 1.49 µM)
[1]; strain WM 02.141 (Russia)
  MIC: 3.13 µg/mL (≈ 3 µM)
[1]; strain WM 02.142 (Russia)
  MIC: 1.56 µg/mL (≈ 1.49 µM)
[1]; strain WM 02.143 (Russia)
  MIC: 3.13 µg/mL (≈ 3 µM)
[1]; strain WM 02.37 (Canada)
  MIC: 1.56 µg/mL (≈ 1.49 µM)
[1]; strain WM 02.52 (Canada)
  MIC: 1.56 µg/mL (≈ 1.49 µM)
[1]; strain WM 04.168 (Chile)
  MIC: 1.56 µg/mL (≈ 1.49 µM)
[1]; strain WM 04.171 (Thailand, environmental)
  MIC: 1.56 µg/mL (≈ 1.49 µM)
[1]; strain WM 05.467 (Brazil, environmental)
  MIC: 1.56 µg/mL (≈ 1.49 µM)
[1]; strain WM 05.515 (Peru)
  MIC: 1.56 µg/mL (≈ 1.49 µM)
[1]; strain WM 09.109 (Italy, environmental)
  MIC: 1.56 µg/mL (≈ 1.49 µM)
[1]; strain WM 09.112 (USA)
  MIC: 1.56 µg/mL (≈ 1.49 µM)
[1]; strain WM 10.119 (Australia)
  MIC: 1.56 µg/mL (≈ 1.49 µM)
[1]; strain WM 629 (Australia)
  MIC: 3.13 µg/mL (≈ 3 µM)
[1]; strain WM 1706 (Argentina)
  MIC: 1.56 µg/mL (≈ 1.49 µM)
[1]; strain WM 1740 (Chile)
  MIC: 3.13 µg/mL (≈ 3 µM)
[1]; strain WM 2207 (USA, environmental)
  MIC: 1.56 µg/mL (≈ 1.49 µM)
[1]; strain WM 2242 (USA)
  MIC: 1.56 µg/mL (≈ 1.49 µM)
[1]; strain WM 2530 (USA)
  MIC: 3.13 µg/mL (≈ 3 µM)
[2]; strain ATCC 24066 (NIH 18)
  MIC: 1.56 µg/mL (≈ 1.49 µM)
[2]; strain ATCC 32269
  MIC: 3.13 µg/mL (≈ 3 µM)
[2]; strain ATCC 32608 (NIH 191)
  MIC: 0.78 µg/mL (≈ 0.747 µM)
[2]; strain ATCC 32609 (NIH444)
  MIC: 3.13 µg/mL (≈ 3 µM)
[2]; strain ATCC 34878
  MIC: 3.13 µg/mL (≈ 3 µM)
[2]; strain ATCC 34882
  MIC: 6.25 µg/mL (≈ 5.98 µM)
[2]; strain B5748 (VGIV HIV India)
  MIC: 3.13 µg/mL (≈ 3 µM)
[2]; strain R266 (Vancouver Island)
  MIC: 1.56 µg/mL (≈ 1.49 µM)
[2]; strain R267 (Vancouver Island)
  MIC: 12.50 µg/mL (≈ 12 µM)
[2]; strain R268 (Vancouver Island)
  MIC: 3.13 µg/mL (≈ 3 µM)
[2]; strain R269 (Vancouver Island)
  MIC: 3.13 µg/mL (≈ 3 µM)
[2]; strain R270 (Vancouver Island)
  MIC: 3.13 µg/mL (≈ 3 µM)
[3]; strain 486 (USA)
  MIC: 3.13 µg/mL (≈ 3 µM)
[3]; strain 488 (AIDS+, pre-HAART USA)
  MIC: 1.56 µg/mL (≈ 1.49 µM)
[3]; strain 490 (USA)
  MIC: 1.56 µg/mL (≈ 1.49 µM)
[3]; strain 496 (USA)
  MIC: 1.56 µg/mL (≈ 1.49 µM)
[3]; strain 500 (USA)
  MIC: 1.56 µg/mL (≈ 1.49 µM)
[3]; strain 502 (ARR3+ USA)
  MIC: 3.13 µg/mL (≈ 3 µM)
[3]; strain 505 (India)
  MIC: 1.56 µg/mL (≈ 1.49 µM)
[3]; strain 507 (India)
  MIC: 1.56 µg/mL (≈ 1.49 µM)
[3]; strain 512 (India)
  MIC: 3.13 µg/mL (≈ 3 µM)
[3]; strain 516 (India)
  MIC: 3.13 µg/mL (≈ 3 µM)
[3]; strain 518 (VNI India)
  MIC: 1.56 µg/mL (≈ 1.49 µM)
[3]; strain 522 (India)
  MIC: 3.13 µg/mL (≈ 3 µM)
[3]; strain 525 (India)
  MIC: 1.56 µg/mL (≈ 1.49 µM)
[3]; strain 1188 (Japan lung)
  MIC: 3.13 µg/mL (≈ 3 µM)
[3]; strain 1189 (USA BAL/HIV)
  MIC: 1.56 µg/mL (≈ 1.49 µM)
[3]; strain 1194 (Italy)
  MIC: 1.56 µg/mL (≈ 1.49 µM)
[3]; strain 1196 (Botswana CSF/AIDS)
  MIC: 3.13 µg/mL (≈ 3 µM)
[3]; strain 1197 (Botswana CSF/AIDS)
  MIC: 3.13 µg/mL (≈ 3 µM)
[3]; strain 1199 (Uganda CSF/HIV+ VNII)
  MIC: 1.56 µg/mL (≈ 1.49 µM)
[3]; strain H99O (lab strain)
  MIC: 1.56 µg/mL (≈ 1.49 µM)
[4]
  effect of capsule formation on fungicidal activity: retarded the fungicidal activity; also recorded: small but statistically significant increase in survival

From paper PMC5786788, “Antimicrobial Octapeptin C4 Analogues Active against Cryptococcus Species” (Antimicrobial Agents and Chemotherapy, 2018)
